# ChEMBL document CHEMBL1201862, “PubChem BioAssay data set” (2004)
# Active and inactive are the calls of the source.
# Assays:
# [1] = Artemis endonuclease inhibitor potency, dose response, biochemical, fluorescence intensity (AID 720701); format: functional;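 note: Artemis endonuclease enzyme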
# Bcl-2-like protein 10 = molecular target: T1, Bcl-2-like protein 10 (Homo sapiens, UniProt Q9HD36); assay: displacers of TR3 peptide from Bcl-B, primary screen, selectivity assay for Bfl-1 inhibitor project, biochemical, fluorescence polarization, FITC-TR3 peptide (AID 748);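 note: fluorescence polarization from a fluorescein-labelled TR3 peptide binding purified Bcl-B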
# T1 sequence (Q9HD36 whole entry): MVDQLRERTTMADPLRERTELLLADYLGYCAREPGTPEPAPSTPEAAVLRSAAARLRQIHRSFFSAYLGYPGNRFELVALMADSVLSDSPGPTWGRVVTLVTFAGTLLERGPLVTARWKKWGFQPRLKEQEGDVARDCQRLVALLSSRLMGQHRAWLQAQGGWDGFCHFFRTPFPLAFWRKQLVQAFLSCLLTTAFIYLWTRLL
# [2] = molecular target: T2, Calpain-2 catalytic subunit (Sus scrofa, UniProt P43367); assay: pig calpain II inhibitor potency, dose response, biochemical, fluorogenic peptide substrate (AID 1420); format: functional
# T2 sequence (P43367 whole entry): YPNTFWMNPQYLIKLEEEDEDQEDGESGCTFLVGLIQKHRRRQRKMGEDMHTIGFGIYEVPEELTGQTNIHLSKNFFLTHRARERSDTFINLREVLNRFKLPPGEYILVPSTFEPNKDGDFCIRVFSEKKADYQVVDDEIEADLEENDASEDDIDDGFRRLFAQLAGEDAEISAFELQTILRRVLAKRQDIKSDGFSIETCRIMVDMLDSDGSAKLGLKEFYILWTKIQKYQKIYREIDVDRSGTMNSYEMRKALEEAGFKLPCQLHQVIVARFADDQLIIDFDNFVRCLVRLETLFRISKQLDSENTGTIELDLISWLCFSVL
# [3] = molecular target: Intestinal-type alkaline phosphatase (Homo sapiens, UniProt P09923); assay: human intestinal alkaline phosphatase activators, dose response, biochemical, luminescence, uHTS hits (AID 463120); format: functional
# Intestinal-type alkaline phosphatase, sequence (P09923 whole entry): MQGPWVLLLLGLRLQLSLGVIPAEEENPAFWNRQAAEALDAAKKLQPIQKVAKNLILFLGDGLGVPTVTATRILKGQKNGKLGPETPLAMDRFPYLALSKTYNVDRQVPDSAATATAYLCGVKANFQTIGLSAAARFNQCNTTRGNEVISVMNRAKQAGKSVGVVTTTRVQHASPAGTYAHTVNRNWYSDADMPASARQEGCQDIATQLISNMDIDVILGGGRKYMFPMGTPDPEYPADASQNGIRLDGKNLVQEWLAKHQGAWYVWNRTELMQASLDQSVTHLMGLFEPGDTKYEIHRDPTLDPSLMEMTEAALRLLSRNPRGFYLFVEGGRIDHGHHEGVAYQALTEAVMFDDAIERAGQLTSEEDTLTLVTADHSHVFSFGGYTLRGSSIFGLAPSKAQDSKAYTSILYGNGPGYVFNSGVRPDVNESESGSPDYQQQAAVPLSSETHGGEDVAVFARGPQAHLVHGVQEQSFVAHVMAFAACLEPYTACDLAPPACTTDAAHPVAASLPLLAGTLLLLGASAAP
# [4] = growth suppression of PTEN-null colon cells, dose response, cell-based, HCT116 PTEN knockout (AID 1047); format: functional;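 note: HCT116 colon tumor cells with PTEN knocked out; cells exposed to compound for 60 hours before readout; potency for loss of cell viability measured by luminescence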
# [5] = growth suppression of beta-catenin-knockout colon cells, dose response, cell-based, HCT116, human colon tumor (AID 1045); format: functional;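 note: HCT116 colon tumor cells with beta catenin knocked out; cells exposed to compound for 60 hours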
# Coagulation factor XII = molecular target: T3, Coagulation factor XII (Homo sapiens, UniProt P00748); format: functional;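 note: activated factor XIIa alpha cleaving a fluorogenic AMC peptide substrate; inhibitor potency from loss of enzyme activity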
# T3 sequence (P00748 whole entry): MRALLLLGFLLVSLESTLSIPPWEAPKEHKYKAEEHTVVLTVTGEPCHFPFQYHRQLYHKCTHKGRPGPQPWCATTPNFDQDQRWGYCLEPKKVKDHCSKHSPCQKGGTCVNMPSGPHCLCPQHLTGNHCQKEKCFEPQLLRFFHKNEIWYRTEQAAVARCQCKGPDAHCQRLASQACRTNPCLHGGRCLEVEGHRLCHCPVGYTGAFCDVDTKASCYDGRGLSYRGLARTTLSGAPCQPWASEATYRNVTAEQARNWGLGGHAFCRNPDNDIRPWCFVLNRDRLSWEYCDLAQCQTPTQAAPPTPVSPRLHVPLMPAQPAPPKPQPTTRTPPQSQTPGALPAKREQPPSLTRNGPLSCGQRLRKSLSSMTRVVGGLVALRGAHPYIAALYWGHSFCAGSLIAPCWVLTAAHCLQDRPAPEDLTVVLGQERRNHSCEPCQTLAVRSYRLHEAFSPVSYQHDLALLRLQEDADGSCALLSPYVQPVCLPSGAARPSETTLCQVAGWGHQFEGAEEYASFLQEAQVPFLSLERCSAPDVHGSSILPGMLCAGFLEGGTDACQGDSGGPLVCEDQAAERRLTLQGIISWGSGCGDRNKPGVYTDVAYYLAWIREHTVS
# Cytochrome P450 2C9 = Cytochrome P450 2C9 (Homo sapiens, UniProt P11712)
# Cytochrome P450 2C9, sequence (P11712 whole entry): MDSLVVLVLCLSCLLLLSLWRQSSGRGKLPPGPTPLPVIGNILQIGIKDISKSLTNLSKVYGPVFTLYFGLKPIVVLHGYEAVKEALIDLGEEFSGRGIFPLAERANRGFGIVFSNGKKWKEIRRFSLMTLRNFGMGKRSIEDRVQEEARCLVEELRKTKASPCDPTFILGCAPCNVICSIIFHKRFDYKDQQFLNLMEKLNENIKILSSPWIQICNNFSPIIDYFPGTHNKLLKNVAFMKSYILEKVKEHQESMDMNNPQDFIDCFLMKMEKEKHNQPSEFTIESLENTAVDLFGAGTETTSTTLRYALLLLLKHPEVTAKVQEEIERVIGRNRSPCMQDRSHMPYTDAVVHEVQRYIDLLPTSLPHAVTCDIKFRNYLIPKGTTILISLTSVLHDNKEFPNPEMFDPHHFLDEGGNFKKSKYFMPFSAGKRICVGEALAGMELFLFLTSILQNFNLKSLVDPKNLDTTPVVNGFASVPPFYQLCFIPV
# Cytochrome P450 3A4 = Cytochrome P450 3A4 (Homo sapiens, UniProt P08684);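 note: CYP3A4 tested as one member of a cytochrome P450 panel screen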
# Cytochrome P450 3A4, sequence (P08684 whole entry): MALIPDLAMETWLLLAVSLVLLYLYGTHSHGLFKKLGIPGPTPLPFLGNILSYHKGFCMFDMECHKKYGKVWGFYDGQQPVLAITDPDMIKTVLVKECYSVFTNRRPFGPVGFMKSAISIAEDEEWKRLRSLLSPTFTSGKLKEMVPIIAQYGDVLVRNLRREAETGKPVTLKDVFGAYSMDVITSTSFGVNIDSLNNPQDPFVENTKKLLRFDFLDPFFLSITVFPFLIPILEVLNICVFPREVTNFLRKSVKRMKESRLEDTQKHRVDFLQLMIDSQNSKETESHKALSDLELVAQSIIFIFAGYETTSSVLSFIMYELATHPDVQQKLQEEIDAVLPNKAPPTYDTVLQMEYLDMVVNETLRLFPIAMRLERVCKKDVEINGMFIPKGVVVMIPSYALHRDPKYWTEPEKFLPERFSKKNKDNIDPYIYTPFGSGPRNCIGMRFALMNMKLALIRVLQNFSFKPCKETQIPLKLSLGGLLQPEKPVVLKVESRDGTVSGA
# [6] = molecular target: T4, Tyrosine-protein phosphatase non-receptor type 7 (Homo sapiens, UniProt P35236); format: functional
# T4 sequence (P35236 whole entry): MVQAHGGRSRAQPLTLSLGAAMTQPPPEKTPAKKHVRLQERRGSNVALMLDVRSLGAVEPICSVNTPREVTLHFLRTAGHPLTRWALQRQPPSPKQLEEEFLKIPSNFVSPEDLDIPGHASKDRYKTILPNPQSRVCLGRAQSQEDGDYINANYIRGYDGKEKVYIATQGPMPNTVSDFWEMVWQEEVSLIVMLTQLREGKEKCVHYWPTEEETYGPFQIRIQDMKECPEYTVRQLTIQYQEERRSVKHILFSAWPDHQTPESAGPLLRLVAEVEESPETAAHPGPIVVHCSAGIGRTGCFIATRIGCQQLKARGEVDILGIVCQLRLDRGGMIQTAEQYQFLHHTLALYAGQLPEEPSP
# [7] = molecular target: T5, Tyrosine-protein phosphatase non-receptor type 22 (Homo sapiens, UniProt Q9Y2R2); format: functional
# T5 sequence (Q9Y2R2 whole entry): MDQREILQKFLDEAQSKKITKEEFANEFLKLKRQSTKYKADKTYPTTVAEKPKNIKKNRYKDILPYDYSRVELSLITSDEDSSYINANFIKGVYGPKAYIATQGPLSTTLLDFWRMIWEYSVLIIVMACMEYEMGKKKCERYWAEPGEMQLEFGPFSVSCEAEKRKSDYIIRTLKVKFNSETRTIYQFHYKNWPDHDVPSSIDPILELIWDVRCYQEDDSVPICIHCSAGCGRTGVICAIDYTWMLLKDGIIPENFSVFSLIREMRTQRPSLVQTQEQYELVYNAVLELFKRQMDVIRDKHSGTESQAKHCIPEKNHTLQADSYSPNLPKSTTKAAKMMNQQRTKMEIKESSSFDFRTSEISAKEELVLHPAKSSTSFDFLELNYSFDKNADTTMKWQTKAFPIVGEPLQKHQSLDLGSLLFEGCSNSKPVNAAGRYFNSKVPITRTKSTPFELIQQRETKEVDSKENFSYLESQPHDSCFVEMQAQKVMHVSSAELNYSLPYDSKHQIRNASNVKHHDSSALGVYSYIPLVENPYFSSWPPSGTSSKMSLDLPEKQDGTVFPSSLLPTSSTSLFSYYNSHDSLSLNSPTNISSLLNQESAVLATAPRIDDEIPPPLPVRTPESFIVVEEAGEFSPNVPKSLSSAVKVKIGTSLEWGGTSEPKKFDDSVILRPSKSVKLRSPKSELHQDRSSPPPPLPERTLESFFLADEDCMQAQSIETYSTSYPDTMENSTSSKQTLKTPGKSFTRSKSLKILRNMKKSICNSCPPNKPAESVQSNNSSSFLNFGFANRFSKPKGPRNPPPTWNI
# [8] = molecular target: T5, Tyrosine-protein phosphatase non-receptor type 22; format: functional; remark: listed apart in the source
# [9] = molecular target: G-protein coupled receptor 55 (Homo sapiens, UniProt Q9Y2T6); assay: GPR55 agonists via beta-arrestin recruitment, primary screen, imaging, U2OS cells, beta-arrestin-GFP redistribution (AID 1961); format: functional
# G-protein coupled receptor 55, sequence (Q9Y2T6 whole entry): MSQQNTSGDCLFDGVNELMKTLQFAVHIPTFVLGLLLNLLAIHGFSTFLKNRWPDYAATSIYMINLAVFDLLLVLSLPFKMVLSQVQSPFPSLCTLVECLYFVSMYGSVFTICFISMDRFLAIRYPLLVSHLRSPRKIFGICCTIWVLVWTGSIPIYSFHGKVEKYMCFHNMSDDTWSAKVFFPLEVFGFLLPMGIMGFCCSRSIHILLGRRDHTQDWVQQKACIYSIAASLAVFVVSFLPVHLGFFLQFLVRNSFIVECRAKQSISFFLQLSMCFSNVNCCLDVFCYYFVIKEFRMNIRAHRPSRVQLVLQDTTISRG
# [10] = molecular target: T6, Heat shock factor protein 1 (Mus musculus, UniProt P38532); assay: inhibition of MG132-induced HSE-luciferase signal, confirmation, cell-based, NIH3T3, luminescence, dose retest (AID 2382); format: functional;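 note: NIH3T3 fibroblasts with HSF1-driven luciferase reporter stressed by proteasome inhibitor MG132; luminescence from HSF1-driven luciferase expression after 8 hours of MG132 stress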
# T6 sequence (P38532 whole entry): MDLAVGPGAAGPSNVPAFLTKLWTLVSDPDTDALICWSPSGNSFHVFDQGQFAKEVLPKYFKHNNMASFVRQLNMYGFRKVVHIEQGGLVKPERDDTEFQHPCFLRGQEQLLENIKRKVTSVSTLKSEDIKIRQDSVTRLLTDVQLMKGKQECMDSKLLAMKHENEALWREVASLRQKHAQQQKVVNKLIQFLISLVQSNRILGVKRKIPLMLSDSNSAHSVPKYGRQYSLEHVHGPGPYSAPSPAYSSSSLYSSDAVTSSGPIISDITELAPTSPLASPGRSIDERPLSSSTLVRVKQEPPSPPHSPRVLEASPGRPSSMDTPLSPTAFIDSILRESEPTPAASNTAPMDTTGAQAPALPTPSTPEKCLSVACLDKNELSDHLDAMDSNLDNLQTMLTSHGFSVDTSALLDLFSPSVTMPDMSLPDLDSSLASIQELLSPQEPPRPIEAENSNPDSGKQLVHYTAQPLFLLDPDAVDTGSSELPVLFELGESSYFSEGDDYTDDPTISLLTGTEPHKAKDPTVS
# [11] = molecular target: G-protein coupled receptor 35 (Homo sapiens, UniProt Q9HC97); assay: GPR35 antagonists blocking zaprinast-driven arrestin recruitment, primary screen, imaging, U2OS, beta-arrestin-GFP, zaprinast agonist (AID 2058); format: functional;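 note: antagonist potency meaning inhibition of agonist-induced arrestin redistribution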
# G-protein coupled receptor 35, sequence (Q9HC97 whole entry): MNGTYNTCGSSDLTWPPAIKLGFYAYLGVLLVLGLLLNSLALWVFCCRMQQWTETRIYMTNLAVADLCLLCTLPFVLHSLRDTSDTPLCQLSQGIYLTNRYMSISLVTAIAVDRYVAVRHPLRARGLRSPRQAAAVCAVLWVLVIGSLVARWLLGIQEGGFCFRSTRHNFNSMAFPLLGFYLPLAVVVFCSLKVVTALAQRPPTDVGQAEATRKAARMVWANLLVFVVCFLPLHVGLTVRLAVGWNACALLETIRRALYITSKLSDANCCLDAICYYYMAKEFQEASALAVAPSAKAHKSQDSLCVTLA
# Hexokinase = Hexokinase (Trypanosoma brucei, UniProt Q38C41); assay: Confirmation assay for inhibitors of Trypanosoma brucei hexokinase 1-Analogue-first series. [Related pubchem assays (depositor defined):AID1430, AID1632, AID2516, AID2560, AID2579, AID2600, AID449725, AID492951]; format: functional
# Hexokinase, sequence (Q38C41 whole entry): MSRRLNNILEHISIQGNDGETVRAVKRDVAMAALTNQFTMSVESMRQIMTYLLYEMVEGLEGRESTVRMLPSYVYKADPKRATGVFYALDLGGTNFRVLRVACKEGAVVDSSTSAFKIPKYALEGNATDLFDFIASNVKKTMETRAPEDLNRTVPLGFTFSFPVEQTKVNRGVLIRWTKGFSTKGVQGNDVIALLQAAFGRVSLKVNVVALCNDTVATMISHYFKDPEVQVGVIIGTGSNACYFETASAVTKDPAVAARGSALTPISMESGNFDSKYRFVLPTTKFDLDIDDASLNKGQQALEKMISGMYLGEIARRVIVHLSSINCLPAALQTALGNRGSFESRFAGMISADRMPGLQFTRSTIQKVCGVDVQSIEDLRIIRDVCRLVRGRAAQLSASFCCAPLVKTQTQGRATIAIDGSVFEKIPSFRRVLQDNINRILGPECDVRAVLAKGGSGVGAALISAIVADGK
# [12] = C. albicans growth with fluconazole, confirmation, fluorescence, retest (AID 2467); format: functional, cell-based
# [13] = NIH-3T3 fibroblast cytotoxicity, dose response, cytotoxicity control, cell-based, fluorescence, Alamar Blue, secondary assay (AID 2327); format: functional;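 note: NIH-3T3 mouse fibroblasts cultured with fluconazole at 8 µg/mL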
# Estrogen receptor = molecular target: T7, Estrogen receptor (Homo sapiens, UniProt P03372);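 note: potency for inhibiting coactivator peptide recruitment to the receptor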
# T7 sequence (P03372 whole entry): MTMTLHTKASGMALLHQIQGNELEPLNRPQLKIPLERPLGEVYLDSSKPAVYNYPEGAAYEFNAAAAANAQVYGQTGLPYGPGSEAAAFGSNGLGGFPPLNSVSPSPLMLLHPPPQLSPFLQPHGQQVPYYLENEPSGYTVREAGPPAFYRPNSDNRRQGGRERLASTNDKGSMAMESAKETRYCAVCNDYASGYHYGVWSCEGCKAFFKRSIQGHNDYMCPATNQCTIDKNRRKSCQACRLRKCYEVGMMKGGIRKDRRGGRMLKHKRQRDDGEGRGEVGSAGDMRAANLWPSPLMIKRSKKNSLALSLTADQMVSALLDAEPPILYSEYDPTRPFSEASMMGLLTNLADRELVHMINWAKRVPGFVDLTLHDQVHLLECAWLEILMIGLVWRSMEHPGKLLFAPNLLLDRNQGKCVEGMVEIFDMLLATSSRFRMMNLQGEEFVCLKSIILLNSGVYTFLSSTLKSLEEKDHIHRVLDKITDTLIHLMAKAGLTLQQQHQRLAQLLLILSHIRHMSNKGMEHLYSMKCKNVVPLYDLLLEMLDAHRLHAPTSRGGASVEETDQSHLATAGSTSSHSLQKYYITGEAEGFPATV
# INS1 = assay: beta cell apoptosis inhibitors, cytokine rescue, dose response, luminescence, retest (AID 449756); format: functional, cell-based; conditions: Rattus norvegicus;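 note: cell death triggered by IL-1 beta plus TNF-alpha plus IFN-gamma mixture; protective hits raise ATP signal compared with cytokine alone wells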
# [14] = THP-1 cell cytotoxicity, dose response, cytotoxicity control for Vif-APOBEC3G degradation inhibitor project, THP-1 cells (AID 1117359); format: functional; conditions: Human immunodeficiency virus 1, THP-1
# Nonstructural protein 1 = Nonstructural protein 1 (Influenza A virus, UniProt Q194T2); format: functional, Influenza A virus (A/California/07/2009(H1N1))
# Nonstructural protein 1, sequence (Q194T2 whole entry): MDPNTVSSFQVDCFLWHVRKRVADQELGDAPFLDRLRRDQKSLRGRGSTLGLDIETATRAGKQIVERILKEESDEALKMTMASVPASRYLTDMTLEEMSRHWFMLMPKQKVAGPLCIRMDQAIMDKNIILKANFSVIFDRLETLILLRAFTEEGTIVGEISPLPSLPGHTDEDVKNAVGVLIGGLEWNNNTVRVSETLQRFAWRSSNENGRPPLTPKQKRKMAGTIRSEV
# [15] = Luminescence Cell-Based Dose Response HTS to Identify Activators of Luciferase Translation or Activity in H4 […] Cells. [Related pubchem assays: 1829 (Project Summary), 1814 (Primary HTS)]; format: functional
# [16] = molecular target: DNA damage-inducible transcript 3 protein (Mus musculus, UniProt P35639); format: functional, Cricetulus griseus
# DNA damage-inducible transcript 3 protein, sequence (P35639 whole entry): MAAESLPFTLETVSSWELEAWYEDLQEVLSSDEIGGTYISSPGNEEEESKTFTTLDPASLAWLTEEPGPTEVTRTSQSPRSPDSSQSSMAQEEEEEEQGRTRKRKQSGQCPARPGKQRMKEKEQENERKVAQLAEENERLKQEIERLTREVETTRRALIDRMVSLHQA
# H4 = assay: Luminescence Cell-Based Dose Response HTS to Identify Activators of 5'UTR Stem-Loop Driven Prion Protein mRNA Translation in H4 Neuroglioblastoma Cells. [Related pubchem assays: 1829 (Project Summary), 1814 (Primary HTS)]; format: functional; conditions: Homo sapiens
# [17] = Luminescence Cell-Based Dose Confirmation HTS to Identify Activators of 5'UTR Stem-Loop Driven Alpha-Synuclein mRNA Translation in H4 Neuroglioblastoma Cells. [Related pubchem assays: 1829 (Project Summary), 1814 (Primary HTS)]; format: functional
# [18] = Luminescence Cell-Based Dose Retest to Confirm Inhibitors of Cancer Stem Cells. [Related pubchem assays (depositor defined):AID2717, AID2721]; format: functional; conditions: Homo sapiens
structure (smiles),measurement,setting,value
O=C(Cc1ccccc1)Nc1ccc(N2CCCC2)cc1,IC50,[1],6.03 µM (active)
same,IC50,Bcl-2-like protein 10,31.2 µM (active)
Cc1cc2cc3c(cc2nc1SCC(=O)Nc1nc(C)c(C)s1)OCO3,IC50,[2],24.1 µM (not active)
same,EC50,[3],25 µM (active)
Cc1ccccc1NC(=O)c1cccc2nc3ccccc3nc12,EC50,[4],23.8 µM (active)
same,EC50,[5],21.9 µM (active)
same,IC50,Coagulation factor XII,> 50 µM (inactive)
same,AC50,Cytochrome P450 2C9,8.91 µM (inconclusive)
same,AC50,Cytochrome P450 3A4,inconclusive
Cc1nn(Cc2cccc(C(=O)NC34CC5CC(CC(C5)C3)C4)c2)c(C)c1Br,IC50,[6],> 79.4 µM (inactive)
same,IC50,[7],> 79.4 µM (inactive)
same,IC50,[8],> 79.4 µM (inactive)
COc1ccc(C2C(C(C)=O)=C(O)C(=O)N2c2nccs2)cc1OC (configuration not stated),IC50,Coagulation factor XII,> 50 µM (inactive)
COc1ccc(F)cc1C(=O)C1CCCN(Cc2cccn2-c2ccccn2)C1 (configuration not stated),EC50,[9],8.93 µM (active)
same,EC50,[10],> 195 µM (not active)
CC(=O)Nc1sc(/C(C#N)=C/c2ccc(Cl)c(Cl)c2)nc1-c1ccc(C)cc1,IC50,[11],0.534 µM (active)
COc1ccc(NC(=O)c2ccc(Cl)cc2C(=O)O)cc1,IC50,Hexokinase,> 25 µM (inactive)
Cc1ccc2nc(O)c(C3C(C#N)=C(N)Oc4c3ccc3cccnc43)cc2c1 (configuration not stated),EC50,[12],2.17 µM (active)
same,EC50,[13],> 160 µM (inconclusive)
same,IC50,Estrogen receptor,19.5 µM (active)
same,AC50,INS1,1.27 µM (active)
same,CC50,[14],2.48 µM (active)
same,IC50,Nonstructural protein 1,46.8 µM (active)
same,IC50,Bcl-2-like protein 10,66.8 µM (inactive)
C=C(C(=O)c1ccccc1)C(C)C(=C)C(=O)c1ccccc1,EC50,[4],1.65 µM (active)
same,EC50,[15],> 120 µM (not active)
same,Absolute IC50 (CHOP),[16],10 µM
same,EC50,[5],1.14 µM (active)
same,EC50,H4,> 120 µM (not active)
same,EC50,[17],7.98 µM (active)
same,AC50,INS1,7.97 µM (active)
same,AC50,[18],2.33 µM (active)
